Test results taken from US7183304B2, “Heterocyclic compounds and methods of use” (Novartis AG, priority 2001, dated 2007).

How the values were obtained:
Type in all cases: biochemical
Settings in all cases: TR-FRET coactivator (SRC-1) recruitment
[1] = biological target: T1, PPARα receptor (GST-hPPARα LBD) (Homo sapiens, UniProt Q07869); assay: PPARα functional binding assay (CARLA, TR-FRET)
T1 construct: made in house; host or cells: E. coli BL21 (DE3), pGEX vector
T1 sequence (Q07869 167-468): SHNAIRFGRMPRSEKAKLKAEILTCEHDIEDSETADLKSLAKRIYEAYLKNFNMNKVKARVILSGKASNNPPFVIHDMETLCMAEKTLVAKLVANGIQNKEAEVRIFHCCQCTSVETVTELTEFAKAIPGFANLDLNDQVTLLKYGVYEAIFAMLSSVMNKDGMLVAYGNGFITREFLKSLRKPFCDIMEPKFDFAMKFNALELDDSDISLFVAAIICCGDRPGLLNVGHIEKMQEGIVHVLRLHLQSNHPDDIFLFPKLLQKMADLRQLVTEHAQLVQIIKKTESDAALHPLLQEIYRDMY
Procedure: (§1) The in vitro functional binding to the PPARα, PPARδ and PPARγ receptors is determined as follows:
(§2) The functional binding assays for the PPARα, PPARδ and PPARγ receptors are a variation of the coactivator-dependent receptor ligand assay (CARLA) (see Krey et al., “Fatty Acids, Eicosanoids, and Hypolipidemic Agents Identified as Ligands of Peroxisome Proliferator-Activated Receptors by Coactivator-Dependent Receptor Ligand Assay”, Molecular Endocrinology, Vol. 11, pp. 779–791 (1997)). The present CARLA assays use a TR-FRET detection method previously reviewed (see Hemmila, “LANCE: Homogeneous Assay Platform for HTS”, J. Biomol. Screening, Vol. 4, pp. 303–307 (1999); Mathis, “HTRF Technology”, J. Biomol. Screening, Vol. 4, pp. 309–313 (1999)). All assays included 3 nM of the glutathione-S-transferase (GST) fusion proteins of either the hPPARα ligand binding domain (LBD) (amino acids 167–468) (GST-hPPARα LBD), GST-hPPARδ LBD (amino acids 139–442) or GST-hPPARγ LBD (amino acids 175–476); 3 nM Eu-labeled anti-GST antibody (Wallac); 30 nM biotinylated steroid receptor coactivator-1 (SRC-1) peptide (an N-terminal biotinylated peptide, […], derived from amino acids 676–700 of SRC-1); and 10 nM streptavidin-labelled allophycocyanin (APC; Prozyme). The binding of a ligand to a PPAR LBD alters the conformation of the LBD and permits the biotinylated SRC-1 peptide to bind. This brings the Eu-labeled anti-GST antibody and the strepavidin-labeled APC in close proximity, thereby facilitating fluorescence energy transfer. The biotinylated SRC-1 peptide is prepared by standard solid-phase peptide synthetic methods. The GST-PPAR LBDs are expressed in pGEX vectors (Amersham Pharmacia) in the E. coli strain BL21 (DE3) using standard expression conditions at 18° C. In some cases the GST-PPAR LBDs are co-expressed with groESL. […] After mixing all components, the reaction mixture stands for 3 hours at room temperature before reading the TR-FRET (Time-Resolved Fluorescence Resonance Energy Transfer) signal on a Wallac Victor 2 plate reader (measuring the ratio of signals at […]). […]

[2] = biological target: T2, PPARγ receptor (GST-hPPARγ LBD) (Homo sapiens, UniProt P37231); assay: PPARγ functional binding assay (CARLA, TR-FRET)
T2 construct: GST-hPPARγ LBD (amino acids 175–476); made in house; host or cells: E. coli BL21 (DE3), pGEX vector
T2 sequence (P37231 175-476 isoform P37231-2): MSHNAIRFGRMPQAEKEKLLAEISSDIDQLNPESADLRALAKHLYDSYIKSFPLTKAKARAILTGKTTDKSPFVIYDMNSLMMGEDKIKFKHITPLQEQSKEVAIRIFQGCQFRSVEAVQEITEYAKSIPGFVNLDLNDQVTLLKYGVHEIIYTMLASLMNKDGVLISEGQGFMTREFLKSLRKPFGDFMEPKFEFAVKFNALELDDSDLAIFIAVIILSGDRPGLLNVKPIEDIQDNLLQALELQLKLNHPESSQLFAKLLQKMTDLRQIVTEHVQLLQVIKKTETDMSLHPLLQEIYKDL
Procedure: as §1, §2

[3] = biological target: T3, PPARδ receptor (GST-hPPARδ LBD) (Homo sapiens, UniProt Q03181); assay: PPARδ functional binding assay (CARLA, TR-FRET)
T3 construct: GST-hPPARδ LBD (amino acids 139–442); made in house; host or cells: E. coli BL21 (DE3), pGEX vector
T3 sequence (Q03181 139-441 limits assumed): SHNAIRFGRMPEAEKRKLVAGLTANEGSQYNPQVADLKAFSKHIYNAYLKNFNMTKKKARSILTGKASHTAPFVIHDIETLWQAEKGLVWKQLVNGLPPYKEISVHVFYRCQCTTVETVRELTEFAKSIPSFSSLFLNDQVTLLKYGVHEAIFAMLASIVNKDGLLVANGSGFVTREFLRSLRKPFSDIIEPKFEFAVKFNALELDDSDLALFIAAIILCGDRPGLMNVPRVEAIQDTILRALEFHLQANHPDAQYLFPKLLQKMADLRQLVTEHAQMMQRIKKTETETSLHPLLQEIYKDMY
T3 sequence (Q15788 676-700 partner limits assumed): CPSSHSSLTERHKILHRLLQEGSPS
Procedure: as §1, §2

SMILES | EC50 [1] [nM] | EC50 [2] [nM] | EC50 [3] [nM]
CCCc1cc(Oc2ccccc2)ccc1OCCCOc1ccc(S(=O)(=O)N2c3ccccc3C[C@@H]2C(=O)O)cc1 [Example 1, (R)-1-{4-[3-(4-Phenoxy-2-propyl-phenoxy)-propoxy]-benzenesulfonyl}-2,3-dihydro-1H-indole-2-carboxylic acid] | ~27 | ~23 | ~173
Cc1oc(-c2ccccc2)nc1COc1ccc(S(=O)(=O)N2CC[C@@H]2C(=O)O)cc1 [Example 5–10, (R)-1-[4-(5-Methyl-2-phenyl-oxazol-4-ylmethoxy)-benzenesulfonyl]-azetidine-2-carboxylic acid] | ~3 | ~3 | ~1250
Cc1oc(-c2ccccc2)nc1COc1ccc(S(=O)(=O)N2CCC[C@@H]2C(=O)O)cc1 [Example 6–39, (R)-1-[4-(5-Methyl-2-phenyl-oxazol-4-ylmethoxy)-benzenesulfonyl]-pyrrolidine-2-carboxylic acid] | ~7 | ~2 | ~1160
